pIC50: −log10 of the molar value. Blank lines part the entries; values can stand above or below the compound they belong to. Non-standard residues stand in square brackets, D forms with d. Residues, ends and D or L forms follow the SMILES beside them. *: point of attachment. Octanoyl = CCCCCCCC(=O)*; X1 = CC(C)C[C@@H](CN)N*; Dap = NC[C@H](N)C(=O)O
Legend:
[1] = target: T1, Membrane-bound ghrelin O-acyltransferase MBOAT4 (Mus musculus, UniProt P0C7A3); assay: Inhibition of N-terminal His10-tagged mouse GOAT expressed in baculovirus infected sf9 insect cell membrane using proghrelin-His8 and [3H]octanoyl CoA as substrate by scintillation counting method; assay type: cell membranes
T1 sequence (P0C7A3 whole entry): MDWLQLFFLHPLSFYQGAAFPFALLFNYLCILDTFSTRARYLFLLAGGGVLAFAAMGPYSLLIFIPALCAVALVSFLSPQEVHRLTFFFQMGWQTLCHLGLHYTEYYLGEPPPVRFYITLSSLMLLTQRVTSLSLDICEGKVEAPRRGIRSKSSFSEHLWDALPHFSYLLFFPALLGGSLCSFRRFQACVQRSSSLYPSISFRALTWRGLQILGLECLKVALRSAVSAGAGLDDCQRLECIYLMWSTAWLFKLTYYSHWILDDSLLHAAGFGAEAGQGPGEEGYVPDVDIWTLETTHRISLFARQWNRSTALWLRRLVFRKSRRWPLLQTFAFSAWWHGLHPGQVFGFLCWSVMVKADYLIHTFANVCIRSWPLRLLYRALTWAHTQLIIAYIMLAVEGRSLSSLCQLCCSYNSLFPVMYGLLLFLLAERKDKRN

[2] = target: T2, Membrane-bound ghrelin O-acyltransferase MBOAT4 (Homo sapiens, UniProt Q96T53); assay: Inhibition of human His-tagged GOAT expressed in baculovirus infected Sf9 cell membrane using desacyl-ghrelin-biotin and octanoyl-CoA as substrate incubated for 1 hr by ELISA; assay type: cell membranes
T2 sequence (Q96T53 whole entry): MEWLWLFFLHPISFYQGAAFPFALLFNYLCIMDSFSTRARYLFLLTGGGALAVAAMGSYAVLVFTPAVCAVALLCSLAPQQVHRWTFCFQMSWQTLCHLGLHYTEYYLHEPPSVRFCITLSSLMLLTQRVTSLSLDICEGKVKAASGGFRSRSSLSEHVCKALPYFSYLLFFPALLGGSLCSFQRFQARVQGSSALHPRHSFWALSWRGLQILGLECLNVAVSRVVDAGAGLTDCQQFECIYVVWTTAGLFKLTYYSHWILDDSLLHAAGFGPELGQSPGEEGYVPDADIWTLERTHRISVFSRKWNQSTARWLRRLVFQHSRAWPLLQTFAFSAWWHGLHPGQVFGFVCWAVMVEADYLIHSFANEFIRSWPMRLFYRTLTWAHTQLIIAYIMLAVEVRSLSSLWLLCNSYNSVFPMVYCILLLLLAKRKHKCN

[3] = In vivo inhibition of GOAT in C57BL/6 mouse assessed as reduction in ratio of AG to total-ghrelin at 18 mg/kg, po BID administered via gavage for 3 days by ELISA relative to control; assay type: functional; conditions: C57BL/6, po, 72 h, time 3 day
[4] = target: Growth hormone secretagogue receptor type 1 (Homo sapiens, UniProt Q92847); assay: Inhibition of GHSR-1A (unknown origin)
[5] = target: T2, Membrane-bound ghrelin O-acyltransferase MBOAT4; assay: Inhibition of GOAT (unknown origin)
[6] = target: T1, Membrane-bound ghrelin O-acyltransferase MBOAT4; assay: Antagonist activity at mouse GOAT expressed in baculovirus infected sf9 insect cell membrane using ghrelin(1 to 5) pentapeptide as substrate preincubated for 5 mins followed by Palmitoyl-CoA and n-octynoyl-CoA addition and measured after 5 mins by amplex red/H2O2 reagent-based fluorescence method; assay type: cell membranes
[7] = target: T2, Membrane-bound ghrelin O-acyltransferase MBOAT4; assay: Inhibition of human GOAT expressed in baculovirus infected sf9 insect cell membrane using GSSFLC-acrylodan and octanoyl-CoA as substrate preincubated for 30 mins followed by substrate addition and measured after 3 hrs by HPLC analysis; assay type: cell membranes
[8] = In vivo inhibition of GOAT in C57BL/6 mouse assessed as increase in unacylated-ghrelin level at 3 mg/kg, po BID administered via gavage for 3 days by ELISA relative to control; assay type: functional; conditions: time 3 day
[9] = In vivo inhibition of GOAT in C57BL/6 mouse assessed as decrease in plasma acylated ghrelin level at 3 mg/kg, po BID administered via gavage for 3 days by ELISA relative to control; assay type: functional; conditions: C57BL/6, po, 72 h, time 3 day
[10] = In vivo inhibition of GOAT in C57BL/6 mouse assessed as reduction in ratio of AG to total-ghrelin at 3 mg/kg, po BID administered via gavage for 3 days by ELISA relative to control; assay type: functional; conditions: C57BL/6, po, 72 h, time 3 day
[11] = In vivo inhibition of GOAT in mouse model of HFHC-diet induced obesity assessed as reduction in acyl ghrelin level at 10 mg/kg, po administered once daily for 7 days relative to control; assay type: functional; conditions: 168 h, time 7 day
[12] = In vivo inhibition of GOAT in cynomolgus monkey assessed as reduction in plasma acyl ghrelin AUC (0 to 24 hrs) at 10 mg/kg, po administered as single dose measured after 15 mins to 24 hrs relative to control; assay type: functional; conditions: Macaca fascicularis, 0.25 h
[13] = target: T2, Membrane-bound ghrelin O-acyltransferase MBOAT4; assay: Inhibition of human His-tagged GOAT expressed in baculovirus infected Sf9 cell membrane using biotinylated ghrelin peptide/octanoyl-CoA/palmitoyl CoA as substrate incubated for 80 mins by TR-FRET assay; assay type: cell membranes
[14] = In vivo inhibition of GOAT in C57BL/6 mouse assessed as reduction in ratio of AG to total-ghrelin at 0.3 mg/kg, po BID administered via gavage for 3 days by ELISA relative to control; assay type: functional; conditions: C57BL/6, po, 72 h, time 3 day
[15] = In vivo inhibition of GOAT in C57BL/6 mouse assessed as reduction in ratio of AG to total-ghrelin at 10 mg/kg, po BID administered via gavage for 3 days by ELISA relative to control; assay type: functional; conditions: C57BL/6, po, 72 h, time 3 day
[16] = In vivo inhibition of GOAT in C57BL/6 mouse assessed as reduction in ratio of AG to total-ghrelin at 1 mg/kg, po BID administered via gavage for 3 days by ELISA relative to control; assay type: functional; conditions: C57BL/6, po, 72 h, time 3 day
[17] = In vivo inhibition of GOAT in C57BL/6 mouse assessed as reduction in ratio of AG to total-ghrelin at 0.1 mg/kg, po BID administered via gavage for 3 days by ELISA relative to control; assay type: functional; conditions: C57BL/6, po, 72 h, time 3 day
[18] = target: T1, Membrane-bound ghrelin O-acyltransferase MBOAT4; assay: Inhibition of mouse GOAT expressed in baculovirus infected sf9 insect cell microsomes using biotinylated des-acyl ghrelin and octanoyl-CoA -CoA as substrate incubated for 15 mins by HTRF assay; design: species or system Microsome
[19] = target: T2, Membrane-bound ghrelin O-acyltransferase MBOAT4; assay: Inhibition of human GOAT expressed in baculovirus infected sf9 insect cell microsomes using biotinylated des-acyl ghrelin and octanoyl-CoA as substrate incubated for 15 mins by HTRF assay; design: species or system Microsome
[20] = In vivo inhibition of GOAT in C57BL/6 mouse assessed as increase in unacylated-ghrelin level at 10 mg/kg, po BID administered via gavage for 3 days by ELISA relative to control; assay type: functional; conditions: time 3 day
[21] = In vivo inhibition of GOAT in C57BL/6 mouse assessed as increase in unacylated-ghrelin level at 1 mg/kg, po BID administered via gavage for 3 days by ELISA relative to control; assay type: functional; conditions: time 3 day
[22] = In vivo inhibition of GOAT in C57BL/6 mouse assessed as increase in unacylated-ghrelin level at 0.3 mg/kg, po BID administered via gavage for 3 days by ELISA relative to control; assay type: functional; conditions: time 3 day
[23] = In vivo inhibition of GOAT in C57BL/6 mouse assessed as decrease in plasma acylated ghrelin level at 10 mg/kg, po BID administered via gavage for 3 days by ELISA relative to control; assay type: functional; conditions: C57BL/6, po, 72 h, time 3 day
[24] = In vivo inhibition of GOAT in C57BL/6 mouse assessed as decrease in plasma acylated ghrelin level at 1 mg/kg, po BID administered via gavage for 3 days by ELISA relative to control; assay type: functional; conditions: C57BL/6, po, 72 h, time 3 day
[25] = In vivo inhibition of GOAT in C57BL/6 mouse assessed as decrease in plasma acylated ghrelin level at 0.3 mg/kg, po BID administered via gavage for 3 days by ELISA relative to control; assay type: functional; conditions: C57BL/6, po, 72 h, time 3 day

Chain of Growth hormone secretagogue receptor type 1 (Q92847 whole entry): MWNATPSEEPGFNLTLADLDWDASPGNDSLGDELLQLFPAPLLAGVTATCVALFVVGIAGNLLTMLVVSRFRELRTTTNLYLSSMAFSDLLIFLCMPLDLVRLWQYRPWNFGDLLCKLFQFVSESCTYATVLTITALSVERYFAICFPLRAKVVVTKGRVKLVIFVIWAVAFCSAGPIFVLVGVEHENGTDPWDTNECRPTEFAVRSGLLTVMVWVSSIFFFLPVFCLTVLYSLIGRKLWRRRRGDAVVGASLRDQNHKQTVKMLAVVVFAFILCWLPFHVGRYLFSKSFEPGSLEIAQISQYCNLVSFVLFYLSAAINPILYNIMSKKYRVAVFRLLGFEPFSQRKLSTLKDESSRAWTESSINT

SMILES: CCCCCCC[C@H](O)/C=C/[C@H](NC(=O)OCc1ccccc1)C(=O)OC
pIC50 [1]: 4.05

SMILES: CCCCCCCC(=O)OC[C@H](OC(=O)[C@H](CO)NC(=O)CN)C(=O)N[C@@H](Cc1ccccc1)C(=O)N[C@@H](CC(C)C)C(=O)N[C@@H](CO)C(=O)N1CCC[C@H]1C(=O)N[C@@H](CCC(=O)O)C(=O)N[C@@H](Cc1cnc[nH]1)C(=O)N[C@@H](CCC(N)=O)C(=O)N[C@@H](CCCCN)C(=O)N[C@@H](C)C(=O)N[C@@H](CCC(N)=O)C(=O)N[C@@H](CCC(N)=O)C(=O)N[C@@H](CCCNC(=N)N)C(=O)N[C@@H](CCCCN)C(=O)N[C@@H](CCC(=O)O)C(=O)N[C@@H](CO)C(=O)N[C@@H](CCCCN)C(=O)N[C@@H](CCCCN)C(=O)N1CCC[C@H]1C(=O)N1CCC[C@H]1C(=O)N[C@@H](C)C(=O)N[C@@H](CCCCN)C(=O)N[C@@H](CC(C)C)C(=O)N[C@@H](CCC(N)=O)C(=O)N1CCC[C@H]1C(=O)N[C@@H](CCCNC(=N)N)C(=O)O
pIC50 [1]: 5.15

SMILES: CCCCCCN(C(C)=O)C(CNCc1ccccc1)c1ccc2cc(O)ccc2c1 (centres undefined)
pIC50 [6]: 5.12

SMILES: CCCCCCC[C@](C)(O)/C=C/[C@H](NC(=O)OCc1ccccc1)C(=O)OC
pIC50 [1]: 4.30

SMILES: CCCCCCCCN(C(C)=O)C(CNCc1ccccc1)c1ccc2cc(O)ccc2c1 (centres undefined)
pIC50 [6]: 4.89

SMILES: CCCCCCCC(=O)OC[C@H](NC(=O)[C@H](CO)NC(=O)CN)C(=O)N[C@@H](Cc1ccccc1)C(=O)N[C@H](CN)CC(C)C (H-GSS(Octanoyl)F-X1)
pIC50 [1]: 4.35

SMILES: COC(=O)N[C@@H](C)C(=O)N1CCC(CCc2c(N)nc(C)nc2Cl)CC1
fold change (FC) [8]: 2.9
inhibition in vivo at 3 mg/kg [9]: 66%
inhibition in vivo at 3 mg/kg [10]: 82%

SMILES: Cc1nc(C(F)(F)F)nc(N)c1CCC1CCN(C(=O)[C@H](C)NC(=O)c2ccnn2C)CC1
inhibition in vivo at 0.3 mg/kg [14]: 62%
inhibition in vivo at 10 mg/kg [15]: 82%
inhibition in vivo at 3 mg/kg [10]: 82%
inhibition in vivo at 1 mg/kg [16]: 79%
inhibition in vivo at 0.1 mg/kg [17]: 57%

SMILES: O=C(O)c1ccc2oc(SCc3ccc(Cl)cc3Cl)nc2c1
pIC50 [18]: 8.48
pIC50 [19]: 8.07

SMILES: CCCCCCCC(=O)NC[C@H](NC(=O)[C@H](CO)NC(=O)CN)C(=O)N[C@@H](Cc1ccccc1)C(=O)N[C@H](CN)CC(C)C (H-GS[Dap](Octanoyl)F-X1)
pIC50 [1]: 6.00

Continued, in another order:

pIC50 [2]: 7.16
SMILES: C[C@H](NC(=O)c1ccn(C)n1)C(=O)N1CCC(CCc2c(N)nc(N)nc2Cl)CC1
inhibition in vivo at 18 mg/kg [3]: 86%

pIC50 [4]: 4.00
pIC50 [5]: 8.22
SMILES: C[C@@H](O)[C@H](NC(=O)[C@@H]1CCCN1C(=O)[C@H](CO)NC(=O)[C@H](Cc1cccc2ccccc12)NC(=O)[C@H](CN)NC(=O)[C@H](CO)NC(=O)CN)C(N)=O (HELM PEPTIDE1{G.S.[NC[C@H](N[*:1])C(=O)[*:2]].[O=C([C@H](Cc1cccc2ccccc12)N[*:1])[*:2]].S.P.T.[am]}$$$$V2.0)

pIC50 [7]: 5.10
SMILES: CC1(C)C(=O)C(C#N)=C[C@]2(C)[C@H]3CC[C@]4(C)CCC[C@H]4[C@@H]3CC[C@@H]12

pIC50 [13]: > 7.30
SMILES: O=C(O)Cc1csc2cc(O[C@H]3CCc4ncccc43)cc(Cl)c12
inhibition in vivo at 10 mg/kg [11]: 28%
inhibition in vivo at 10 mg/kg [12]: 51%

pIC50 [2]: 6.72
SMILES: C[C@H](NC(=O)C1CC1)C(=O)N1CCC(CCc2c(N)nc(N)nc2Cl)CC1
inhibition in vivo at 0.3 mg/kg [14]: 39%
fold change (FC) [20]: 2.9
fold change (FC) [8]: 2.53
fold change (FC) [21]: 2.82
fold change (FC) [22]: 2.24
inhibition in vivo at 10 mg/kg [23]: 48%
inhibition in vivo at 3 mg/kg [9]: 45%
inhibition in vivo at 1 mg/kg [24]: 5%
inhibition in vivo at 0.3 mg/kg [25]: -1%
inhibition in vivo at 10 mg/kg [15]: 77%
inhibition in vivo at 3 mg/kg [10]: 71%
inhibition in vivo at 1 mg/kg [16]: 54%

pIC50 [1]: 7.52
SMILES: CCCC[C@H]1C[C@H](C(=O)NC[C@H]2CCCN2C(=O)[C@@H](NC(=S)CNC)C(C)(C)C)C1

Reference: ChEMBL document CHEMBL4673189, “Recent progress in the discovery of ghrelin O-acyltransferase (GOAT) inhibitors” (RSC Med Chem, 2020)
